# From US6512006B1, “HIV protease inhibitors” (Warner-Lambert Company, priority 1999, dated 2003)
# Key:
# [1] = tested on: HIV infected lymphocyte derived CEM cells; test: Cellular Infection Assay, XTT cytopathic procedure in CEM cells (antiviral efficacy); format: cell-based; details: Human immunodeficiency virus 1, CCRF-CEM, read-out: Antiviral Efficacy EC50, CEM cells, 50% protection against HIV cytopathic effects
# Procedure: Compounds were tested in lymphocyte derived CEM cells using the XTT cytopathic procedures and were performed at Southern Research Institute (Buckheit, et al., Antiviral Res., 1993;21:247; see also Weislow, et al., J. Nat. Cancer Inst., 1989;81:577). Compound concentrations were 0.32, 1, 3.2, 10, 32, and 100 μM. The EC50 represents the concentration of agent, which reduces HIV cytopathic effects 50% relative to untreated control. Cellular toxicity of the agents are estimated from the TC50 which represents the concentration of the agent which inhibits 50% of the viability of uninfected cells.
# EC50 indicates the concentration of the drug which provide 50% protection against HIV.
# [2] = biological target: T1, Recombinant HIV-1 protease (Human immunodeficiency virus type 1 group M subtype B, UniProt P04585); test: HIV Protease Assay (Ki); format: biochemical; details: Inhibition of HIV Protease Ki, pH 6.2, 37° C., 40 μM substrate III
# T1 construct: Recombinant HIV-1 protease (>96% purity); purchased Bachem Bioscience, Inc. (King of Prussia, Pa.)
# Procedure: Recombinant HIV-1 protease (>96% purity) and HIV protease substrate III (the undecapeptide H-His-Lys-Ala-Arg-Val-Leu-Nph-Glu-Ala-Nle-Ser-NH2, 97% purity) were purchased from Bachem Bioscience, Inc. (King of Prussia, Pa.).
# The methods employed follow the procedures of Tummino, et al., Archives of Biochemistry and Biophysics, 1995;316:523). […] (total volume, […]). […] The final inhibitor concentrations used were 0 (0.1, 0.2, in some experiments), 0.5, 1, 2, 5, 10, 20, 50, and 100 μM. The solution was mixed, incubated for 5 minutes and the reaction quenched by addition of trifluoracetic acid, 2% final. The (leu-p-nitro-phe) bond of the substrate is cleaved by the enzyme and substrate and products separated by reverse-phase HPLC (high pressure liquid chromatography). Absorbance was measured at 220 nm, peak areas determined, and percentage conversion to product used to calculate percentage control (=[% conversion (+inhibitor)/% conversion (−inhibitor)]×100).
# Ki means inhibitory constant; it approximately the equilibrium binding constant for the binding of the inhibitor to the free enzyme.
# [3] = Cellular toxicity in uninfected CEM cells (XTT); format: cell-based; details: human, uninfected CEM cells (lymphocyte derived), cytotoxicity in 50% of uninfected CEM cells; read-out: TC50 (the source's name)
# Procedure: Compound concentrations were 0.32, 1, 3.2, 10, 32, and 100 μM.
melting point [°C],SMILES,EC50 [1] [nM],Ki [2] [nM],CC50 [3] [nM]
104 to 106,CCCN(C1=C(O)CC(CCc2ccc(O)cc2)(C2CCCC2)OC1=O)c1cccc(NS(=O)(=O)c2ccc(C(F)(F)F)cn2)c1 (stereo not shown),–,–,–
64 to 66,CCCCN(C1=C(O)CC(CCc2cccc(O)c2)(C2CCCC2)OC1=O)c1ccccc1 (stereo not shown),–,–,–
53 to 55,CCCN(C1=C(O)CC(CCc2ccsc2)(C(C)C)OC1=O)c1ccccc1 (stereo not shown),–,–,–
95,CCCN(C1=C(O)CC(CCc2ccc(O)cc2)(C2CCCC2)OC1=O)c1ccccc1 (stereo not shown),–,–,–
63 to 65,CCN(C1=C(O)CC(CCc2ccc(O)cc2)(C(C)C)OC1=O)c1ccccc1 (stereo not shown),–,–,–
90 to 92,O=C1OC(CCc2cccc(O)c2)(C2CCCC2)CC(O)=C1N(c1ccccc1)c1ccccc1 (stereo not shown),–,–,–
104 to 106,CC(C)C1(CCc2ccc(O)cc2)CC(O)=C(N(c2ccccc2)C2CCCCC2)C(=O)O1 (stereo not shown),–,–,–
83 to 85,CC(C)C1(CCc2ccc(O)cc2)CC(O)=C(N(c2ccccc2)C2CCCC2)C(=O)O1 (stereo not shown),–,–,–
179 to 181,CCCN(C1=C(O)CC(C)(CCc2ccc(O)cc2)OC1=O)c1ccccc1 (stereo not shown),–,–,–
58 to 60,CCCCC1(CCc2ccc(O)cc2)CC(O)=C(N(CCC)c2ccccc2)C(=O)O1 (stereo not shown),–,–,–
74 to 75,CCCN(C1=C(O)CC(CCc2ccc(O)cc2)(C2CC2)OC1=O)c1ccccc1 (stereo not shown),–,–,–
85 to 86,CC(C)C1(CCc2ccc(O)cc2)CC(O)=C(N(CCO)c2ccccc2)C(=O)O1 (stereo not shown),–,–,–
93 to 95,CCCN(C1=C(O)CC(CCc2ccc3c(c2)OCO3)(C(C)C)OC1=O)c1ccccc1 (stereo not shown),–,–,–

# The remaining lines, values behind:
SMILES,melting point [°C],EC50 [1] [nM],Ki [2] [nM],CC50 [3] [nM]
CCCN(C1=C(O)CC(CCc2ccc(O)cc2)(C(C)C)OC1=O)c1cccc(NS(=O)(=O)c2cccs2)c1 (stereo not shown),85 to 87,–,–,–
CCCN(C1=C(O)CC(CCc2ccc(N)cc2)(C(C)C)OC1=O)c1cccc(NS(=O)(=O)c2ccc(C(F)(F)F)cn2)c1 (stereo not shown),170 to 172,–,–,–
CC(C)C1(CCc2ccc(O)cc2)CC(O)=C(N(c2ccccc2)c2ccccc2)C(=O)O1 (stereo not shown),83 to 85,–,–,–
CCCN(C1=C(O)CC(CCc2ccc(O)cc2)(C(C)C)OC1=O)c1cccc(C(=O)OC)c1 (stereo not shown),96 to 98,–,–,–
CCCN(C1=C(O)CC(CCc2ccc(O)cc2)(C(C)C)OC1=O)c1cc(Cl)cc(Cl)c1 (stereo not shown),86 to 88,–,–,–
CCCN(C1=C(O)CC(CCc2ccccc2)(C(C)C)OC1=O)c1ccccc1 (stereo not shown),160 to 162,–,–,–
COc1ccc(N(C2=C(O)CC(CCc3ccc(O)cc3)(C(C)C)OC2=O)c2ccccc2)cc1 (stereo not shown),95 to 96,–,–,–
CC(C)C1(CCc2ccc(O)cc2)CC(O)=C(N(c2ccccc2)c2cccc(O)c2)C(=O)O1 (stereo not shown),95 to 97,–,–,–
CC(C)N(C1=C(O)CC(CCc2ccc(O)cc2)(C(C)C)OC1=O)c1ccccc1 (stereo not shown),75 to 77,–,–,–
CC(C)CCN(C1=C(O)CC(CCc2ccc(O)cc2)(C(C)C)OC1=O)c1ccccc1 (stereo not shown),70 to 72,–,–,–
CC(C)C1(CCc2ccc(O)cc2)CC(O)=C(N(c2ccccc2)C2CC2)C(=O)O1 (stereo not shown),102 to 104,–,–,–
CCCN(C1=C(O)CC(CCc2ccc(O)cc2)(C(C)C)OC1=O)c1cccc2c(O)cccc12 (stereo not shown),93 to 96,–,–,–
CCN(C1=C(O)CC(CCc2ccc(O)cc2)(C(C)C)OC1=O)c1ccc2ccccc2c1 (stereo not shown),97 to 99,–,–,–
CCN(C1=C(O)CC(CCc2ccc(O)cc2)(C(C)C)OC1=O)c1cccc2ccccc12 (stereo not shown),86 to 88,–,–,–
CC(C)C1(CCc2ccc(O)cc2)CC(O)=C(N(Cc2ccccc2)c2ccccc2)C(=O)O1 (stereo not shown),75 to 77,–,–,–
CCCCN(C1=C(O)CC(CCc2ccc(O)cc2)(C(C)C)OC1=O)c1ccccc1 (stereo not shown) [15],69 to 71,–,–,–
CCCN(C1=C(O)CC(CCc2ccc(O)cc2)(C(C)C)OC1=O)c1cccc(CO)c1 (stereo not shown) [19],61 to 63,–,–,–
CCCN(C1=C(O)CC(CCc2ccc(O)cc2)(C(C)C)OC1=O)c1cccc(CO)c1 (stereo not shown) [32],71 to 73,–,–,–
"CCCN(C1=C(O)CC(CCc2ccccc2)(C(C)C)OC1=O)c1cccc(NS(=O)(=O)c2ccc(C(F)(F)F)cn2)c1 (stereo not shown) [Example 1, 5-Trifluoromethyl-pyridine-2-sulfonic acid {3-[(4-hydroxy-6-isopropyl-2-oxo-6-phenethyl-5,6-dihydro-2H-pyran-3-yl)-propyl-amino]-phenyl}-amide]",–,700,0.029,63000
"CCN(C1=C(O)CC(CCc2ccccc2)(C(C)C)OC1=O)c1cccc(NS(=O)(=O)c2ccc(C(F)(F)F)cn2)c1 (stereo not shown) [Example 3, 5-Trifluoromethyl-pyridine-2-sulfonic acid {3-[ethyl-(4-hydroxy-6-isopropyl-2-oxo-6-phenethyl-5,6-dihydro-2H-pyran-3-yl)-amino]-phenyl}-amide]",–,1100,0.96,66000
"CCCN(C1=C(O)CC(CCc2ccc(O)cc2)(C(C)C)OC1=O)c1cccc(NS(=O)(=O)c2ccc(C(F)(F)F)cn2)c1 (stereo not shown) [Example 4, 5-Trifluoromethyl-pyridine-2-sulfonic acid [3-({4-hydroxy-6-[2-(4-hydroxy-phenyl)-ethyl]-6-isopropyl-2-oxo-5,6-dihydro-2H-pyran-3-yl}-propyl-amino)-phenyl]-amide]",–,1100,0.01,84000
"CCCC1(CCc2ccc(O)cc2)CC(O)=C(N(CC)c2cccc(NS(=O)(=O)c3ccc(C(F)(F)F)cn3)c2)C(=O)O1 (stereo not shown) [Example 5, 5-Trifluoromethyl-pyridine-2-sulfonic acid [3-(ethyl-{4-hydroxy-6-[2-(4-hydroxy-phenyl)-ethyl]-2-oxo-6-propyl-5,6-dihydro-2H-pyran-3-yl}-amino)-phenyl]-amide]",–,1300,0.17,113000
"CCN(C1=C(O)CC(CCc2ccc(O)cc2)(C(C)C)OC1=O)c1cccc(NS(=O)(=O)c2ccc(C(F)(F)F)cn2)c1 (stereo not shown) [Example 6, 5-Trifluoromethyl-pyridine-2-sulfonic acid [3-(ethyl-{4-hydroxy-6-[2-(4-hydroxy-phenyl)-ethyl]-6-isopropyl-2-oxo-5,6-dihydro-2H-pyran-3-yl}-amino)-phenyl]-amide]",–,1300,0.44,133000
"CCCN(C1=C(O)CC(CCc2ccc(O)cc2)(C(C)C)OC1=O)c1ccccc1 (stereo not shown) [Example 7, 4-Hydroxy-6-[2-(4-hydroxy-phenyl)-ethyl]-6-isopropyl-3-(phenyl-propyl-amino)-5,6-dihydro-pyran-2-one]",171 to 173,1300,0.13,200000
"CCCN(C1=C(O)CC(CCc2cccc(O)c2)(C2CCCC2)OC1=O)c1ccccc1 (stereo not shown) [Example 8, 6-Cyclopentyl-4-hydroxy-6-[2-(3-hydroxy-phenyl)-ethyl]-3-(phenyl-propyl-amino)-5,6-dihydro-pyran-2-one]",74 to 76,1300,0.35,67000
"CCCN(C1=C(O)CC(CCc2ccccc2CO)(C(C)C)OC1=O)c1ccccc1 (stereo not shown) [Example 9, 4-Hydroxy-6-[2-(2-hydroxymethyl-phenyl)-ethyl]-6-isopropyl-3-(phenyl-propyl-amino)-5,6-dihydro-pyran-2-one]",58 to 60,1400,2,101000
